Source: patent US20080009418A1, “Selective Inhibitors” (Alchemia LTD., priority 2004, published 2008)

Columns and labels:
Conditions in all cases: compound at 10 μM
Human melanocortin (MC5) = target: T1, Human melanocortin (MC5) (Homo sapiens, UniProt P33032); assay: Radioligand binding, human melanocortin MC5 membranes, FlashPlate, [125I]-NDP-αMSH
T1 construct: purchased Perkin Elmer Biosignal
Method in brief: (§1)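 Cloned human receptor membranes were coated onto FlashPlate wells and incubated with radioligand and compound (added from a 0.5 mM DMSO daughter plate) for 1 hour at room temperature in the dark. Scintillation counting gave percent inhibition, with DMSO defining total and reference ligand defining non-specific binding.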

Human Melanocortin (MC3) = target: T2, Human Melanocortin (MC3) (Homo sapiens, UniProt P41968); assay: Radioligand binding, human melanocortin MC3 membranes, FlashPlate, [125I]-NDP-αMSH
T2 construct: purchased Perkin Elmer Biosignal
T2 sequence (P41968 whole entry): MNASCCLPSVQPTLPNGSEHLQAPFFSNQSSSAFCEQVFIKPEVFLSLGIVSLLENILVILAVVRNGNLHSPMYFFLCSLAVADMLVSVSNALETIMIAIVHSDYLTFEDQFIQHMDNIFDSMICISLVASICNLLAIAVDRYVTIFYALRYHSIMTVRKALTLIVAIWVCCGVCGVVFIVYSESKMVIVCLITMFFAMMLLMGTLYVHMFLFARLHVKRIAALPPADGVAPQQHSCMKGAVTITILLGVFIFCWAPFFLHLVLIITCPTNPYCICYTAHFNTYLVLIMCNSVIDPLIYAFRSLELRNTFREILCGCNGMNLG
Method in brief: as §1

Mouse urotensin (mUR2) = target: T3, Mouse urotensin (mUR2) (Mus musculus, UniProt Q8VIH9); assay: Radioligand binding, mouse urotensin mUR2 membranes, FlashPlate, [125I]-Urotensin II
T3 construct: purchased Perkin Elmer Biosignal
T3 sequence (Q8VIH9 1-385): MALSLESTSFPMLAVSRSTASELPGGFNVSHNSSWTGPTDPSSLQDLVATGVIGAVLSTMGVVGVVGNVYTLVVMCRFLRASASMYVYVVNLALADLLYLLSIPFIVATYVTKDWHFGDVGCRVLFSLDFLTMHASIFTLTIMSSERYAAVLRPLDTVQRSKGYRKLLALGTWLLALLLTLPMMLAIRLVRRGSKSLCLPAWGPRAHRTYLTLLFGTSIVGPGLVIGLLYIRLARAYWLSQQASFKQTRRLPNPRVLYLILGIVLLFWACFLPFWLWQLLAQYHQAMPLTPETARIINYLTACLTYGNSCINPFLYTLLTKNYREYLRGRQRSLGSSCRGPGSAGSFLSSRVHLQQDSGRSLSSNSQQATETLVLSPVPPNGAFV
Method in brief: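 Cloned mouse urotensin (mUR2) receptor membranes from Perkin Elmer Biosignal were immobilized in FlashPlate microplates using a proprietary coating. Each well got 19.5 μl buffer, then 0.5 μl of DMSO, reference ligand, or compound. Adding 5 μl of [125I]-Urotensin II, diluted to 5× final concentration in binding buffer, started binding. Plates were sealed with TopSeal-A and incubated 1 hour at room temperature in the dark. Wells were counted for 30 seconds each on a TopCount after a 60-second delay, and percentage inhibition was calculated.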

Human μ-opioid (MOP) = target: T4, Human μ-opioid (MOP) (Homo sapiens, UniProt P35372); assay: Radioligand binding, human μ-opioid (MOP) membranes, FlashPlate, [3H]-Naloxone
T4 construct: purchased Perkin Elmer Biosignal
T4 sequence (P35372 whole entry): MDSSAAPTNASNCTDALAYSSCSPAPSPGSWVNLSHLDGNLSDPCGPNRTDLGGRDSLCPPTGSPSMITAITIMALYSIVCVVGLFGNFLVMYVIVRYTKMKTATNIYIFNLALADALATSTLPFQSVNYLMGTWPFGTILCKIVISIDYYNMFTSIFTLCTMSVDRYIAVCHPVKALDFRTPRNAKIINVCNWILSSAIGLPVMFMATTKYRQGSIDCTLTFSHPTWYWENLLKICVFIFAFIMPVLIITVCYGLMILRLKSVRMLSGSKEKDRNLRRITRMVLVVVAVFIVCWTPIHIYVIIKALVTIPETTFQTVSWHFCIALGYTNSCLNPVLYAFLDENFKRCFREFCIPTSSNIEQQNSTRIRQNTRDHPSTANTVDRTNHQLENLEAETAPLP
Method in brief: as §1

Human κ-Opioid (KOP) = target: T5, Human κ-Opioid (KOP) (Homo sapiens, UniProt P41145); assay: Radioligand binding, human κ-opioid (KOP) membranes, filtration, [3H]-Diprenorphine
T5 construct: purchased Perkin Elmer Biosignal
T5 sequence (P41145 whole entry): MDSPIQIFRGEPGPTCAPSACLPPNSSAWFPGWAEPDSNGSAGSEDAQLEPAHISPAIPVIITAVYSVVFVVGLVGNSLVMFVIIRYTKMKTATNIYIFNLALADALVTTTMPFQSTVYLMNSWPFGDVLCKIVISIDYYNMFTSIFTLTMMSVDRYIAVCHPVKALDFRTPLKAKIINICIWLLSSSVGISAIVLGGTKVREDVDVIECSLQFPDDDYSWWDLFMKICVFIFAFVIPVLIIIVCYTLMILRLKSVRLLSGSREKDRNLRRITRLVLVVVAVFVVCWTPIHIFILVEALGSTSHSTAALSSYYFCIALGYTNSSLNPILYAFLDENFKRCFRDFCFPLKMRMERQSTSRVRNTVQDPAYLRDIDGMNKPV
Method in brief: (§2)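 Membranes from cloned human receptors were incubated with compound and radioligand for 1 hour at room temperature. Bound ligand was collected on 0.3% PEI-soaked filters, washed with cold 50 mM Tris-HCl pH 7.4, and counted by scintillation. Percent inhibition was computed against DMSO totals and reference-ligand nonspecific wells.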

Human neurokinin (NK1) = target: T6, Human neurokinin (NK1) (Homo sapiens, UniProt P25103); assay: Radioligand binding, human neurokinin NK1 membranes, filtration, [125I]-Substance P
T6 construct: purchased Perkin Elmer Biosignal
T6 sequence (P25103 whole entry): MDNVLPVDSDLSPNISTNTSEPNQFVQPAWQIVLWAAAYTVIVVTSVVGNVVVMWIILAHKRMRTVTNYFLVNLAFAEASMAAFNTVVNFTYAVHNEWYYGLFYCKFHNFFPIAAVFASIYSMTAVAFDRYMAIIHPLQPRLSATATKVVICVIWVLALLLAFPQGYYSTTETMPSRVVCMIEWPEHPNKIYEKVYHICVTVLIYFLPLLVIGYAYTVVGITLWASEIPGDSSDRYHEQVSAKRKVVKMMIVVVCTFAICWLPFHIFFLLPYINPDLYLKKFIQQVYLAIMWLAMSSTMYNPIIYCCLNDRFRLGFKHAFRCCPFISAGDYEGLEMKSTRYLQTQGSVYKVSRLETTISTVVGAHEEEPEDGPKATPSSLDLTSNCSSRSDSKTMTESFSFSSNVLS
Method in brief: as §2

[1] = target: T7, Human melanin-concentrating hormone (MCH1) (Homo sapiens, UniProt Q99705); assay: Radioligand binding, human melanin-concentrating hormone MCH1 membranes, FlashPlate, [125I]-S36057
T7 construct: purchased Perkin Elmer Biosignal
T7 sequence (Q99705 whole entry): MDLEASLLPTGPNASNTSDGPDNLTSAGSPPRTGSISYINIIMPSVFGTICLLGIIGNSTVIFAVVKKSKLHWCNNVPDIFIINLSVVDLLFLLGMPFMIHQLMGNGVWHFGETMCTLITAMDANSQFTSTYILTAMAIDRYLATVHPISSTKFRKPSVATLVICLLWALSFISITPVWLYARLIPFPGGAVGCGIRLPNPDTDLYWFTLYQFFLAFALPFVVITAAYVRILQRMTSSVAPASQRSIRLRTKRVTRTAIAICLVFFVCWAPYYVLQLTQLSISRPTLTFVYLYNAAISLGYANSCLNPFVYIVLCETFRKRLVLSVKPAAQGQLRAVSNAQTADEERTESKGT
Method in brief: as §1

Human δ-opioid (DOP) = target: T8, Human δ-opioid (DOP) (Homo sapiens, UniProt P41143); assay: Radioligand binding, human δ-opioid (DOP) membranes, FlashPlate, [3H]-Bremazocine
T8 construct: purchased Perkin Elmer Biosignal
T8 sequence (P41143 whole entry): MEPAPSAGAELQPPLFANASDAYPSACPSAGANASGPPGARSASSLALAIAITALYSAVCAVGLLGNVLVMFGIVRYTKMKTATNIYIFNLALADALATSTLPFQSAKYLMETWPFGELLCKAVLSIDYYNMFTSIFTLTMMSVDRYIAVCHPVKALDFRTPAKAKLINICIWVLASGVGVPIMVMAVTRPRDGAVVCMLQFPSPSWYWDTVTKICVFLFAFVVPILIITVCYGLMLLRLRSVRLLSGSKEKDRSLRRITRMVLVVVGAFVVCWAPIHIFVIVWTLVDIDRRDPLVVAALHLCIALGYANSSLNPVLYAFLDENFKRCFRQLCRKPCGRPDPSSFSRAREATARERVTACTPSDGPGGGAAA
Method in brief: as §1

Human opioid (ORL1) = target: T9, Human opioid (ORL1) (Homo sapiens, UniProt P41146); assay: Radioligand binding, human opioid ORL1 membranes, FlashPlate, [125I]-Nociceptin
T9 construct: purchased Perkin Elmer Biosignal
T9 sequence (P41146 whole entry): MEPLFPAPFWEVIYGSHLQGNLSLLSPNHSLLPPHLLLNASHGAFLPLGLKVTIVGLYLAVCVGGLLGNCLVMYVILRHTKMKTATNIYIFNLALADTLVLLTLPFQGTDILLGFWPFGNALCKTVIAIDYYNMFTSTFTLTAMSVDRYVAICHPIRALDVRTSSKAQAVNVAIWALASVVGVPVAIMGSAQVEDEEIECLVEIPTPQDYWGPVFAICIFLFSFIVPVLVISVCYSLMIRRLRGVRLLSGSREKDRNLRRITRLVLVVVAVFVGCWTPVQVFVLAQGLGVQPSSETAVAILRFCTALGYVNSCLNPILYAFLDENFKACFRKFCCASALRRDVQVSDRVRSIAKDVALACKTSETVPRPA
Method in brief: as §1

[2] = target: T10, Human neuropeptide Y (NPY-Y1) (Homo sapiens, UniProt P25929); assay: Radioligand binding, human neuropeptide Y NPY-Y1 membranes, FlashPlate, [125I]-PYY
T10 construct: purchased Perkin Elmer Biosignal
T10 sequence (P25929 1-384): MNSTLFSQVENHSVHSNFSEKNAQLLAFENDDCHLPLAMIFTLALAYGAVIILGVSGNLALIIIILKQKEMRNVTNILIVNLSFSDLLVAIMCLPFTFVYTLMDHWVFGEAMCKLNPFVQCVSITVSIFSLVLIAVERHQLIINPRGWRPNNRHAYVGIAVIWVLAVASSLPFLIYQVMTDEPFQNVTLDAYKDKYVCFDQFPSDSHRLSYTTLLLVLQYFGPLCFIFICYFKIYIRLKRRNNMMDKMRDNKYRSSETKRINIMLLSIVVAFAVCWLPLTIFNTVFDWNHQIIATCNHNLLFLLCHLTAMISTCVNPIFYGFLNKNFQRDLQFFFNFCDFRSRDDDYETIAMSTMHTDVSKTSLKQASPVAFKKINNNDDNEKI
Method in brief: as §1

Human Melanocortin (MC4) = target: T11, Human Melanocortin (MC4) (Homo sapiens, UniProt P32245); assay: Radioligand binding, human melanocortin MC4 membranes, FlashPlate, [125I]-NDP-αMSH
T11 construct: purchased Perkin Elmer Biosignal
T11 sequence (P32245 whole entry): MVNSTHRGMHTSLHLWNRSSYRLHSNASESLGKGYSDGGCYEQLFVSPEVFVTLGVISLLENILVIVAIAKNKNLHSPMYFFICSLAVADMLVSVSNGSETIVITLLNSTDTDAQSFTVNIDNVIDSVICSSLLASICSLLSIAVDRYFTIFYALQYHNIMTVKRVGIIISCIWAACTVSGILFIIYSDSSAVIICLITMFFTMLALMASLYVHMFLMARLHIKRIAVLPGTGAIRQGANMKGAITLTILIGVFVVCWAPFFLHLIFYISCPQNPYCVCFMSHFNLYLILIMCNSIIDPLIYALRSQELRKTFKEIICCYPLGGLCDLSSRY
Method in brief: as §1

T1 sequence (P33032 whole entry): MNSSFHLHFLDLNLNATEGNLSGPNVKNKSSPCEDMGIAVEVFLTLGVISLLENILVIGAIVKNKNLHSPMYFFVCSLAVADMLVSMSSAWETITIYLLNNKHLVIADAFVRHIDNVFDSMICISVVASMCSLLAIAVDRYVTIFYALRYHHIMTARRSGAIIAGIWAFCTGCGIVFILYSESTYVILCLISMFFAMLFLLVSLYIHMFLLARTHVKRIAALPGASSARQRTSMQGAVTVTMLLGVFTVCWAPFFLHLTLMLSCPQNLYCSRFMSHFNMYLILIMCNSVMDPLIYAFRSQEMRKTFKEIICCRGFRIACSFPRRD

COCC1OC(OCCc2ccccc2)C(NC(=O)CCCNC(=N)N)C(OCc2ccc3ccccc3c2)C1O (stereo not drawn) [compound 229]
A5: inhibition of radioligand binding (Human melanocortin (MC5); [125I]-NDP-αMSH, FlashPlate): + (“+” indicates greater than 50% inhibition at 10 μM) | A3: inhibition of radioligand binding (Human Melanocortin (MC3); [125I]-NDP-αMSH, FlashPlate): − (“−” indicates less than 50% inhibition at 10 μM) | A11: inhibition of radioligand binding (Mouse urotensin (mUR2); [125I]-Urotensin II, FlashPlate): − (“−” indicates less than 50% inhibition at 10 μM) | A7: inhibition of radioligand binding (Human μ-opioid (MOP); [3H]-Naloxone, FlashPlate): − (“−” indicates less than 50% inhibition at 10 μM) | A2: inhibition of radioligand binding (Human κ-Opioid (KOP); [3H]-Diprenorphine, filtration): − (“−” indicates less than 50% inhibition at 10 μM) | A8: inhibition of radioligand binding (Human neurokinin (NK1); [125I]-Substance P, filtration): + (“+” indicates greater than 50% inhibition at 10 μM) | A6: inhibition of radioligand binding ([1]; [125I]-S36057, FlashPlate): + (“+” indicates greater than 50% inhibition at 10 μM) | A1: inhibition of radioligand binding (Human δ-opioid (DOP); [3H]-Bremazocine, FlashPlate): − (“−” indicates less than 50% inhibition at 10 μM) | A10: inhibition of radioligand binding (Human opioid (ORL1); [125I]-Nociceptin, FlashPlate): − (“−” indicates less than 50% inhibition at 10 μM) | A9: inhibition of radioligand binding ([2]; [125I]-PYY, FlashPlate): − (“−” indicates less than 50% inhibition at 10 μM) | A4: inhibition of radioligand binding (Human Melanocortin (MC4); [125I]-NDP-αMSH, FlashPlate): + (“+” indicates greater than 50% inhibition at 10 μM)

COCC1OC(OCc2ccccc2)C(NC(=O)CCCN)C(OCc2ccc(Cl)cc2)C1O (stereo not drawn) [compound 180]
A5 radioligand binding, percentage inhibition (Human melanocortin (MC5); [125I]-NDP-αMSH): − (“−” indicates less than 50% inhibition at 10 μM) | A3 radioligand binding, percentage inhibition (Human Melanocortin (MC3); [125I]-NDP-αMSH): − (“−” indicates less than 50% inhibition at 10 μM) | A11 radioligand binding, percentage inhibition (Mouse urotensin (mUR2); [125I]-Urotensin II): − (“−” indicates less than 50% inhibition at 10 μM) | A7 radioligand binding, percentage inhibition (Human μ-opioid (MOP); [3H]-Naloxone): − (“−” indicates less than 50% inhibition at 10 μM) | A2 radioligand binding, percentage inhibition (Human κ-Opioid (KOP); [3H]-Diprenorphine): − (“−” indicates less than 50% inhibition at 10 μM) | A8 radioligand binding, percentage inhibition (Human neurokinin (NK1); [125I]-Substance P): + (“+” indicates greater than 50% inhibition at 10 μM) | A6 radioligand binding, percentage inhibition ([1]; [125I]-S36057): − (“−” indicates less than 50% inhibition at 10 μM) | A1 radioligand binding, percentage inhibition (Human δ-opioid (DOP); [3H]-Bremazocine): − (“−” indicates less than 50% inhibition at 10 μM) | A10 radioligand binding, percentage inhibition (Human opioid (ORL1); [125I]-Nociceptin): − (“−” indicates less than 50% inhibition at 10 μM) | A9 radioligand binding, percentage inhibition ([2]; [125I]-PYY): − (“−” indicates less than 50% inhibition at 10 μM) | A4 radioligand binding, percentage inhibition (Human Melanocortin (MC4); [125I]-NDP-αMSH): − (“−” indicates less than 50% inhibition at 10 μM)

COC[C@H]1OC(OCc2ccccc2)[C@H](NC(=O)CNC(=N)N)[C@@H](OCc2ccc(-c3ccccc3)cc2)[C@@H]1O (stereo partly drawn) [compound 23]
A5 radioligand binding inhibition (Human melanocortin (MC5); human melanocortin MC5 membranes): + (“+” indicates greater than 50% inhibition at 10 μM) | A3 radioligand binding inhibition (Human Melanocortin (MC3); human melanocortin MC3 membranes): − (“−” indicates less than 50% inhibition at 10 μM) | A11 radioligand binding inhibition (Mouse urotensin (mUR2); mouse urotensin mUR2 membranes): − (“−” indicates less than 50% inhibition at 10 μM) | A7 radioligand binding inhibition (Human μ-opioid (MOP); human μ-opioid (MOP) membranes): − (“−” indicates less than 50% inhibition at 10 μM) | A2 radioligand binding inhibition (Human κ-Opioid (KOP); human κ-opioid (KOP) membranes): − (“−” indicates less than 50% inhibition at 10 μM) | A8 radioligand binding inhibition (Human neurokinin (NK1); human neurokinin NK1 membranes): + (“+” indicates greater than 50% inhibition at 10 μM) | A6 radioligand binding inhibition ([1]; human MCH1 membranes): + (“+” indicates greater than 50% inhibition at 10 μM) | A1 radioligand binding inhibition (Human δ-opioid (DOP); human δ-opioid (DOP) membranes): − (“−” indicates less than 50% inhibition at 10 μM) | A10 radioligand binding inhibition (Human opioid (ORL1); human ORL1 membranes): − (“−” indicates less than 50% inhibition at 10 μM) | A9 radioligand binding inhibition ([2]; human NPY-Y1 membranes): − (“−” indicates less than 50% inhibition at 10 μM) | A4 radioligand binding inhibition (Human Melanocortin (MC4); human melanocortin MC4 membranes): − (“−” indicates less than 50% inhibition at 10 μM)
